# Values quoted from earlier work in patent US10335381B2, “Stabilized formulation of triamcinolone acetonide” (University of Mississippi, priority 2006, dated 2019).
# Settings: Gupta 1983
structure (smiles),measurement,value
"CC1(C)O[C@@H]2C[C@H]3[C@@H]4CCC5=CC(=O)C=C[C@]5(C)[C@@]4(F)[C@@H](O)C[C@]3(C)[C@]2(C(=O)CO)O1 [TAA, triamcinolone acetonide]",optimum pH for TAA stability in aqueous solution,about 3.4
